From article PMC7397336, “5-(4H)-Oxazolones and Their Benzamides as Potential Bioactive Small Molecules” (Molecules, 2020) come the findings set out here.

By melting point is commonly meant the temperature of the solid-liquid transition. What is called inhibition is the change of the read-out against control, counted positive when it falls. One may read the IC50 as the midpoint of a concentration-inhibition curve.

In data set [1] the test system is acetic acid induced writhing. Put plainly: Anti-nociception, acetic acid writhing test. It counts as in vivo, Fisher 344 rats. The following applies: 0.0057 mmol/kg body weight i.p., 0.6% acetic acid. An excerpt:
The animals (Fisher 344 rats), which have been bred in our laboratory, were housed under standard conditions and received a diet of commercial food pellets and water ad libitum during the maintenance but they were entirely fasted during the experiment period. Both sexes were used while females pregnant were excluded. Each group was composed of 6–15 animals. Our studies were in accordance with recognized guidelines on animal experimentation (guidelines for the care and use of laboratory animals published by the Greek Government 160/1991, based on EU regulations 86/609). Rats were kept in the Centre of the School of Veterinary Medicine (EL54 BIO42), Aristotle University of Thessaloniki, which is registered by the official state veterinary authorities (presidential degree 56/2013, in harmonization with the European Directive 2010/63/EEC). The experimental protocols were approved by the Animal Ethics Committee of the Prefecture of Central Macedonia (no. 270079/2500). In order to study the analgesic activity of the tested compound, pain is provoked with acetic acid. Three groups for each compound were used with five animals per group. We followed our previous presented method. After treatment with the tested compounds (0.0057 mmol/kg body weight; intraperitoneally) in group 1, 2nd group was used as a positive control (aspirin; 0.0057 mmol/kg body weight i.p.) and another group (3rd) served as the control in which saline was administered (negative control). After 30 min, 0.6% acetic acid (1 mL/kg body weight) was injected i.p. The number of writhes was recorded for each animal every 5 min during a subsequent 30 min period.
(An intraperitoneal irritant provokes the stretching counted in writhing tests.)

In a further data set the target is T1, trypsin (Bos taurus, UniProt P00760).
T1 sequence (P00760 24-246): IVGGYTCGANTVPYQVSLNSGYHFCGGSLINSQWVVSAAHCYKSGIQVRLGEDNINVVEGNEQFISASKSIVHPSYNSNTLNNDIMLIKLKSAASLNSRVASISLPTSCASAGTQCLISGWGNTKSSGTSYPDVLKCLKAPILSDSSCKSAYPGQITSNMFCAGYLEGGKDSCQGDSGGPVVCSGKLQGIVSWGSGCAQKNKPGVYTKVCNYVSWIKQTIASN
The data set can be described thus: Inhibition of trypsin induced proteolysis. Format: biochemical. The method, then:
(§1) Each in vitro experiment was performed at least in triplicate and the standard deviation of absorbance was less than 10% of the mean. For the in vitro assays, a stock solution (1% DMSO in the appropriate buffer with the tested compound diluted under sonification) was prepared from which several dilutions were made with the appropriate buffer.
The tested compounds (10 µL) were dissolved in DMSO (final concentration 100 µM), with phosphate buffer (pH = 7.6) to give 0.005–0.1 mM solutions, and 100 µL trypsin (1 mg/10 mL) were preincubated at 37 °C for 30 min. Then, 200 µL of albumin (6 mg in 3 mL of distilled water) was added and incubated again at 37 °C for 24 h. After the incubation 1 mL trichloroacetic acid (5% w/w) was added to terminate the reaction. The mixture is centrifugated, the water layer is collected and monitored at 280 nm.

Data set [2] is described as follows: Inhibition of linoleic acid lipid peroxidation (AAPH).
Description: Azo compounds, like AAPH, generating free radicals through spontaneous thermal decomposition are useful for in vitro studies of free radical production. Production of conjugated diene hydroperoxide by oxidation of sodium linoleate in an aqueous solution is monitored at 234 nm. This assay can be used to follow oxidative changes and to understand the contribution of each tested compound. […] It seems that the presence of moiety Ar (Scheme 1) is mainly correlated with the antioxidant result. The nature of the heteroatom O/S in Ar substituent in the 5-membered oxazolone ring (compounds 2c and 2e) influences the biological response. The replacement of the thienyl group in 2c by a furyl group (2e) leads to a 31% decrease of the antioxidant ability.
as §1
The AAPH-induced oxidation of linoleic acid measures the ability of an antioxidant to prevent oxidation of linoleic acid sodium salt induced by alkylperoxyl radicals, generated from the water soluble azo compound 2,2′-azobis(2-amidinopropane) dihydrochloride (AAPH). The assay was performed according to our previous publications. Trolox was used as reference compound.

The target in another data set is T2, soybean lipoxygenase (Glycine max, UniProt P08170).
T2 construct: purchased Sigma Chemical, Co. (St. Louis, MO, USA)
T2 sequence (P08170 1-839): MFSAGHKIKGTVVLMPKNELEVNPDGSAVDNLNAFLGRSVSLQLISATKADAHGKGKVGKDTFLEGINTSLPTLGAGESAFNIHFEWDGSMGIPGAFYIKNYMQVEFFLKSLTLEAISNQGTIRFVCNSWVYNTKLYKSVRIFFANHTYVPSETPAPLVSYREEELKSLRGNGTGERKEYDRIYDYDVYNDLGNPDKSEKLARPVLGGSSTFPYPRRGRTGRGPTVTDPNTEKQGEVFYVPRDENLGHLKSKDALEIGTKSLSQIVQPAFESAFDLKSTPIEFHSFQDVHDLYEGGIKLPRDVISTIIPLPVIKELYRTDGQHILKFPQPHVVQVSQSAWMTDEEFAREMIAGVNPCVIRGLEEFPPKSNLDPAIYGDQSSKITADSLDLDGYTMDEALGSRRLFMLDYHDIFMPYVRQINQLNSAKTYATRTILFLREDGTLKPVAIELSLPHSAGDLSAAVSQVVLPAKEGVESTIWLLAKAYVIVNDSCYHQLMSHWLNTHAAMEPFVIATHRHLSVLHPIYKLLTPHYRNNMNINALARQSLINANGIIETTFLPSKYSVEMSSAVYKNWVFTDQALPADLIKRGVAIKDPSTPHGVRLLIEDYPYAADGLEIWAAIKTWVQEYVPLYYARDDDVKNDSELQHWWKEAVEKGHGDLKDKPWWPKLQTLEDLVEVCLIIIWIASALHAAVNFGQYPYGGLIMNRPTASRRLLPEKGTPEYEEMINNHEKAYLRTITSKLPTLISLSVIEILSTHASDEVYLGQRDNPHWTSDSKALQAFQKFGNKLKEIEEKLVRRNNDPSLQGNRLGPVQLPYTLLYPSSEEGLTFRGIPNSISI
Put plainly: Soybean lipoxygenase inhibition study. It counts as biochemical. The conditions noted are these: for inhibition at 100 µM: read-out: LOX % inhibition 100 μM; for IC50: soybean lipoxygenase, sodium linoleate 0.1 mM, read-out: LOX IC50. The method, then:
For the in vitro assays, a stock solution (1% DMSO in the appropriate buffer with the tested compound diluted under sonification) was prepared from which several dilutions were made with the appropriate buffer. DMSO solution of the tested compound (stock solutions 10 mM) was incubated with sodium linoleate (0.1 mM) and 0.2 mL of soybean lipoxygenase solution (1/9 × 10^−4 w/v in saline) at room temperature. The test follows our previous published methods. […] Several concentrations were used to determine the IC50.

The next data set has as its target mushroom tyrosinase (Agaricus bisporus, UniProt C7FF04). Put plainly: Tyrosinase inhibition assay. Format: biochemical. The following applies: L-Dopa substrate, read-out: ΤyrI% 100 μM (inhibition of mushroom tyrosinase). The method, then: For the in vitro assays, a stock solution (1% DMSO in the appropriate buffer with the tested compound diluted under sonification) was prepared from which several dilutions were made with the appropriate buffer.

In data set [3] the test system is carrageenin-induced rat paw edema. Put plainly: Inhibition of the carrageenin-induced rat paw edema. It counts as in vivo, Fisher 344 rats. The conditions noted are these: 0.0057 mmol/kg body weight i.p., 3.5 h after carrageenin. The protocol:
For the estimation of anti-inflammatory potential of the tested compounds the rat carrageenin induced paw edema assay was employed as a model for acute inflammation. Indomethacin, as a reference drug, and our compounds were administered intraperitoneally in order to ensure systemic response via fast bioavailability, while carrageenin’s intradermal administration, as inflammatory agent, aimed to local response. The development of the edema induced by carrageenin has been described as a biphasic event. The early phase of the inflammatory response, lasting 0.5–1.5 h, is chiefly mediated by histamine and serotonin release inducing hyperalgesia, swelling and redness, while the later phase, lasting 3–6 h, is sustained presumably by prostaglandin release. This model reliably predicts the anti-inflammatory efficacy of the NSAIDs during the second phase, since non-steroidal anti-inflammatory drugs (NSAIDs) present weak activity in the first phase. Therefore, using this protocol we could evaluate our compounds as potential anti-inflammatory agents, as a result of inhibition of prostaglandin amplification.
The animals (Fisher 344 rats), which have been bred in our laboratory, were housed under standard conditions and received a diet of commercial food pellets and water ad libitum during the maintenance but they were entirely fasted during the experiment period. Both sexes were used while females pregnant were excluded. Each group was composed of 6–15 animals. Our studies were in accordance with recognized guidelines on animal experimentation (guidelines for the care and use of laboratory animals published by the Greek Government 160/1991, based on EU regulations 86/609). […]
Edema was induced in the right hind paw of the rats by the intradermal injection of 0.1 mL 2% carrageenin in water we followed our previous published method. […] The change in paw weight was compared with that in control animals (treated with water) and expressed as a percent inhibition of the edema CPE % values. […]

Where “and” joins values, the source holds several entries; their conditions need not be identical. Identical values can stand only once. Marks after values point to notes of the source that are not given here.

mushroom tyrosinase, sequence (G1K3P4 entry or part of it): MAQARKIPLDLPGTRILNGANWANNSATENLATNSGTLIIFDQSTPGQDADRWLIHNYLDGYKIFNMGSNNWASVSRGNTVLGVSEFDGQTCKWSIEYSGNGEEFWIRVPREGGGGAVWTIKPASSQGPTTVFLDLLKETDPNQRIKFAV
mushroom tyrosinase, sequence (C7FF04 1-392): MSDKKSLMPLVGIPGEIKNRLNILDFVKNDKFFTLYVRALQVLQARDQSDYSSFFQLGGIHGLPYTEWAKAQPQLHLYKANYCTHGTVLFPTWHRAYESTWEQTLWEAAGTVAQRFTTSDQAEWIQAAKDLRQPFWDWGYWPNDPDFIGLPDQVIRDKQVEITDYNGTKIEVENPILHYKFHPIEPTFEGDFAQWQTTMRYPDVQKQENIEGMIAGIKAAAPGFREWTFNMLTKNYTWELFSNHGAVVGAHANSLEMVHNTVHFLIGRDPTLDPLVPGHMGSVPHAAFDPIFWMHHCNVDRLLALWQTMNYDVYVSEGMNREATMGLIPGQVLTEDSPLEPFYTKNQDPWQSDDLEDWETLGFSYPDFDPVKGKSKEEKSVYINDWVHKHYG

Turning to `CC(=O)Oc1ccccc1C(=O)O` [Aspirin, aspirin, reference compound], the “Writhing Inhibition (%)” value in data set [1] came out at 77%.

In turn, `O=C(N/C(=C\c1ccccc1)C(=O)N1CCOCC1)c1ccccc1` [Compound 3a, (Z)-N-(3-morpholino-3-oxo-1-phenylprop-1-en-2-yl)benzamide] gave a melting point of 135 to 138 °C. For the same compound, on trypsin, the “Iptr% 10 µM (% trypsin inhibition)” value is given as “no”. Besides, the “AAPH% 100 µM (anti-lipid peroxidation)” value in data set [2] worked out at 69%. On soybean lipoxygenase, the inhibition at 100 µM is less than 50% and the IC50 was found to be 100 µM.

The compound `O=C(N/C(=C\c1ccccc1)C(=O)N1CCN(C(=O)/C(=C/c2ccccc2)NC(=O)c2ccccc2)CC1)c1ccccc1` [Compound 4a, N,N′-((1Z,1′Z)-piperazine-1,4-diylbis(3-oxo-1-phenylprop-1-ene-3,2-diyl))bisbenzamide] gave a melting point of 265 to 268 °C. The inhibition at 100 µM at mushroom tyrosinase amounted to 33%. For the same compound, the “CPE (%) inhibition of carrageenin-induced rat paw edema” value in data set [3] was 44 * % and 44%. The “Writhing Inhibition (%)” value in data set [1] was 32%. For the same compound, the “AAPH% 100 µM (anti-lipid peroxidation)” value in data set [2] came out at 82%. Further, the inhibition at 100 µM on soybean lipoxygenase turned out to be 36%.

`O=C(N/C(=C\c1cccs1)C(=O)N1CCN(C(=O)/C(=C/c2cccs2)NC(=O)c2ccccc2)CC1)c1ccccc1` [Compound 4c, N,N′-((1Z,1′Z)-piperazine-1,4-diylbis(3-oxo-1-(thiophen-2-yl)prop-1-ene-3,2-diyl))bisbenzamide] yielded a melting point of 292 to 294 °C. The inhibition at 100 µM on mushroom tyrosinase was determined as 42%. For the same compound, in data set [3], the “CPE (%) inhibition of carrageenin-induced rat paw edema” value is 56 ** % and 56%. Moreover, in data set [1], the “Writhing Inhibition (%)” value is recorded as 58%. Also, the “AAPH% 100 µM (anti-lipid peroxidation)” value in data set [2] is recorded as 93%. Also, at soybean lipoxygenase, the IC50 worked out at 41 µM.
